In ChEMBL document CHEMBL4428049, “Design and synthesis of aminothiazole modulators of the gamma-secretase enzyme” (Bioorg Med Chem Lett, 2016):
Values after ≈ are worked out from the molar mass of the structure shown.

Experiments:
[1] = Kinetic solubility in PBS buffer at pH 7.4 by UV/vis absorbance analysis; type: physicochemical; conditions: read-out: Kinetic_solubility
Gamma-secretase = experiment: Modulation of gamma-secretase in human SH-SY5Y cells overexpressing wild-type human APP751 assessed as inhibition of Abeta42 level after 24 hrs by ELISA; type: cell-based

Row | SMILES | solubility kinetic [1] [µM] | IC50 (Gamma-secretase) [nM]
1 | Cc1cn(-c2ccc(-c3csc(Nc4c5c(nn4C4CCN(C)CC4)CCCC5)n3)cc2F)cn1 | 2.8 (≈ 1.38 µg/mL) | > 1000
2 | Cc1cn(-c2ccc(-c3csc(Nc4c5c(nn4CCCN4CCOCC4)CCCC5)n3)cc2F)cn1 | 16 (≈ 8.35 µg/mL) | 270
3 | Cc1cn(-c2ccc(-c3csc(Nc4c5c(nn4CCN4CCOCC4)CCCC5)n3)cc2F)cn1 |  | > 1000
4 | Cc1cn(-c2ccc(-c3csc(Nc4[nH]nc5c4CCCC5)n3)cc2F)cn1 |  | > 1000
5 | Cc1cn(-c2ccc(-c3csc(Nc4c5c(nn4C4CCOC4)CCCC5)n3)cc2F)cn1 (stereo not given) |  | 289
6 | Cc1cn(-c2ccc(-c3csc(Nc4c5c(nn4CCO)CCC5)n3)cc2F)cn1 | < 1.6 | > 1000
7 | CCn1nccc1Nc1nc(-c2ccc(-n3cnc(C)c3)c(F)c2)cs1 |  | > 1000
8 | Cc1cn(-c2ccc(-c3csc(Nc4c5c(nn4C4CCOCC4)CCCC5)n3)cc2F)cn1 |  | 766
9 | COCCn1nc2c(c1Nc1nc(-c3ccc(-n4cnc(C)c4)c(F)c3)cs1)CCCC2 | 2.3 (≈ 1.04 µg/mL) | 272

Now those with a lower IC50 (Gamma-secretase), led by results:

Row | solubility kinetic [1] [µM] | IC50 (Gamma-secretase) [nM] | SMILES
10 |  | 229 | Cc1cn(-c2ccc(-c3csc(Nc4c5c(nn4CCCO)CCCC5)n3)cc2F)cn1
11 |  | 208 | Cc1cn(-c2ccc(-c3csc(Nc4c5c(nn4C)CCCC5)n3)cc2F)cn1
12 |  | 195 | Cc1cn(-c2ccc(-c3csc(Nc4c5c(nn4C(C)C)CCCC5)n3)cc2F)cn1
13 |  | 121 | Cc1cn(-c2ccc(-c3csc(Nc4cc(C(F)(F)F)nn4C(C)(C)C)n3)cc2F)cn1
14 |  | 110 | Cc1cn(-c2ccc(-c3csc(Nc4c5c(nn4CCF)CCCC5)n3)cc2F)cn1
15 | < 1.6 | 94 | Cc1cn(-c2ccc(-c3csc(Nc4c5c(nn4CC(F)(F)F)CCC5)n3)cc2F)cn1
16 | < 1.6 | 92 | Cc1cn(-c2ccc(-c3csc(Nc4c5c(nn4C4CCC4)CCC5)n3)cc2F)cn1
17 | < 1.6 | 87 | Cc1cn(-c2ccc(-c3csc(Nc4cc(C(C)(C)C)nn4CC(F)(F)F)n3)cc2F)cn1
18 |  | 87 | Cc1cn(-c2ccc(-c3csc(Nc4cc(C(C)(C)C)nn4C(C)C)n3)cc2F)cn1
19 | < 1.6 | 86 | CCCn1nc(C(C)(C)C)cc1Nc1nc(-c2ccc(-n3cnc(C)c3)c(F)c2)cs1
20 | 2 (≈ 0.905 µg/mL) | 85 | Cc1cn(-c2ccc(-c3csc(Nc4cc(C(C)(C)C)nn4C(C)(C)C)n3)cc2F)cn1
21 | < 1.6 | 67 | CCn1nc(C2(C)CC2)cc1Nc1nc(-c2ccc(-n3cnc(C)c3)c(F)c2)cs1
22 | < 1.6 | 66 | Cc1cn(-c2ccc(-c3csc(Nc4c5c(nn4C(C)C)CCC5)n3)cc2F)cn1
23 | 2.1 (≈ 0.917 µg/mL) | 62 | CCn1nc2c(c1Nc1nc(-c3ccc(-n4cnc(C)c4)c(F)c3)cs1)CCC2(C)C
